Data set [1] is described as follows: Metabolites of [14C] Compound 1 in liver microsomes. It counts as in vitro ADME, human. The conditions noted are these: [C-14] Compound 1 10 μM, 90 mins. As to the method:
(§1) Incubations were performed in hepatocytes for 3 hours and liver microsomes for 1.5 hours and were stopped with the addition of methanol. HPLC, in conjuction with ionspray 3D iontrap mass spectrometry, and simultaneous radioactive monitoring were used to detect and identify the resulting metabolites.
This acid cleavage product is further metabolized to form hydroxylated (M 11, 16% in rat) and hydroxylated, defluorinated products (M 17, 19% in rat).

Data set [2] deals with BxPc-3 pancreatic xenograft. The experiment in a line: Antitumor activity in BxPc-3 tumor model. It counts as in vivo, mice. The conditions noted are these: oral 25 mg/kg once a day for 14 days.
For data set [3], the system named is RXF-393 renal cell carcinoma. Description: Antitumor activity in RXF-393 tumor model. It counts as in vivo, mice. The conditions noted are these: oral 25 mg/kg once a day, euthanized on day 8 of dosing.
Data set [4] concerns ERK phosphorylation in MDCK cells. The experiment in a line: cells. The following applies: Canis lupus familiaris, 1 h, read-out: Cellular IC50.
Data set [5] relates to MiaPaCa-2 pancreatic xenograft. The experiment in a line: Antitumor activity in MiaPaCa-2 tumor model. The data set is classed as in vivo, mice. The conditions noted are these: oral 25 mg/kg once a day for 14 days.
Data set [6] can be described thus: Metabolites of [14C] Compound 1 in cryopreserved hepatocytes. The data set is classed as in vitro ADME, rat. The following applies: [C-14] Compound 1 10 μM, 180 mins. How it is done:
as §1
(§2) Metabolite identification of radiolabeled Compound 1 was performed after incubation with rat, dog, monkey and human cryopreserved hepatocytes and liver microsomes. […] Besides glucuronidation, metabolites derived from other clearance pathways are also observed. For instance, M 15 (acid cleavage product) accounts for 11% of the total radioactivity in the human chromatogram.

For data set [7], the system named is ERK phosphorylation in HCT-116 colon cells. Description: cells. The conditions noted are these: Homo sapiens, HCT-116, 1 h, read-out: Cellular IC50.
Data set [8] can be described thus: Metabolites of [14C] Compound 1 in cryopreserved hepatocytes. It counts as in vitro ADME, dog. The following applies: [C-14] Compound 1 10 μM, 180 mins. As to the method: as §1, §2
The test system of data set [9] is ERK phosphorylation in colon 26 cells. The experiment in a line: cells. The conditions noted are these: Mus musculus.
The nature of data set [10]: Metabolites of [14C] Compound 1 in cryopreserved hepatocytes. The data set is classed as in vitro ADME, monkey. The conditions noted are these: [C-14] Compound 1 10 μM, 180 mins. How it is done: as §1, §2

SMILES strings stand for the structures. Like-named read-outs stand apart in the source and are kept apart here.

Consider `O=C(NOC[C@H](O)CO)c1ccc(F)c(F)c1Nc1ccc(I)cc1F` [Compound 1, N-[(R)-2,3-dihydroxy-propoxy]-3,4-difluoro-2-(2-fluoro-4-iodo-phenylamino)-benzamide], for which the “% ROI Human” value in data set [1] was found to be 77.36%. The “CR (complete responder)” value in data set [2] is recorded as 2/10; in data set [3], 0/10; in data set [5], 1/9. Further, the “PR (partial responder)” value in data set [2] is listed as 8/10; in data set [3], 0/10; in data set [5], 0/9. Also, the results for the “T − C” value in [2] and in data set [5] were 20.6 days and 16.8 days, respectively. Further, the “Tumor Free” value was 0/10 in data set [2], 0/10 in data set [3] and 0/9 in data set [5]. Further, the half-maximal inhibitory concentration (IC50) (in general, the concentration that gives 50% inhibition) in data set [4] was 0.31 nM; in [7], 0.28 nM; in data set [9] (Colon 26, 1 h, read-out: Cellular IC50) it was 0.34 nM; in [9] (Colon 26, read-out: IC50, phosphorylation of MAP kinase), 0.33 nM. The “% ROI Rat” value in [6] came to 72.06%. Further, the “% ROI Dog” value in data set [8] is given as 50.45%. Besides, the “% ROI Monkey” value in [10] is 23.46%.
